Assay results taken from patent US8410064B2, “Classical cannabinoid metabolites and methods of use thereof” (priority 2009, dated 2013).

What was measured:
human UGTs [1] = assay: Glucuronidation activity across the tested human recombinant UGTs; details: 12 human recombinant UGTs; 750 μM substrate, UDP-GlcUA 4 mM, 90 min
recombinant human UGT2B7 = target: T1, recombinant human UGT2B7 (Homo sapiens, UniProt P16662); assay: Glucuronidation by recombinant UGT2B7 (activity screen); details: 750 μM substrate, UDP-GlcUA 4 mM, 90 min
T1 sequence (P16662 24-529): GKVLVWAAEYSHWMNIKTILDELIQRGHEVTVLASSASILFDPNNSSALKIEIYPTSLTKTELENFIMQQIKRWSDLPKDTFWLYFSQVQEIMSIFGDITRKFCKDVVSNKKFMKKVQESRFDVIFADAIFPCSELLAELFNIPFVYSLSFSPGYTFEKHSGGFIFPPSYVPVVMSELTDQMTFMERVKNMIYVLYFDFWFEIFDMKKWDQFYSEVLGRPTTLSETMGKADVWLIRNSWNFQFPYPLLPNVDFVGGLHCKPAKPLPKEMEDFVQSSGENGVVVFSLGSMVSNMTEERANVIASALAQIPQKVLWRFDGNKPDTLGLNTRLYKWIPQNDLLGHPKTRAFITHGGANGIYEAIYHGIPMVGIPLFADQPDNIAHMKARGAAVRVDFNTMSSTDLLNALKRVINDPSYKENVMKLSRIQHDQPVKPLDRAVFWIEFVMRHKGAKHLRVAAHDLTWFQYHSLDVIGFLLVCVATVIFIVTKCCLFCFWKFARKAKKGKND

[2] = target: T2, recombinant human UGT2B17 (Homo sapiens, UniProt O75795); assay: Glucuronidation by recombinant UGT2B17 (activity screen); details: 750 μM substrate, UDP-GlcUA 4 mM, 90 min
T2 sequence (O75795 24-530): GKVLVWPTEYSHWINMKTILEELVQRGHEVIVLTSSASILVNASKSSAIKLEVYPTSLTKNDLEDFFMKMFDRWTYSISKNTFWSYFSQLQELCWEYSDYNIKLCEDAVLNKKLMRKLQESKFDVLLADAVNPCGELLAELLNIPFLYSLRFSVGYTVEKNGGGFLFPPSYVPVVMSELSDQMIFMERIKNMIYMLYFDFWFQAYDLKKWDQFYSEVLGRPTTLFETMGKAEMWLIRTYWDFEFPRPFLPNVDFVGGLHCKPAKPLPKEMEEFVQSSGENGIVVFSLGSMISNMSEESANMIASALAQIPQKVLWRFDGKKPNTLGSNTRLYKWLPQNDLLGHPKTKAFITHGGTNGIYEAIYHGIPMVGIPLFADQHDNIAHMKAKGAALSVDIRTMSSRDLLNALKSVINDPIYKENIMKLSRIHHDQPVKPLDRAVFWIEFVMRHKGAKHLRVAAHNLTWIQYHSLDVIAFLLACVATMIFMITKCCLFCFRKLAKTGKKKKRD

human UGTs [3] = assay: LC-MS/MS confirmation of glucuronidated products; assay type: in vitro ADME; details: recombinant protein, 750 μM substrate, UDP-glucuronic acid 4 mM, 180 min, negative ion mode
Method: FIG. 3 depicts a series of graphs illustrating RP-HPLC chromatographs of glucuronidated-product ion experiments. Tracings represent organic-soluble metabolites generated during incubation of recombinant protein with UDP-glucuronic acid (4 mM) and 750 μM of each substrate (A) Δ^9-THC, (B) CBN, (C) 11-OH-THC, (D) CBD, and (E) COOH-THC. Each substrate was incubated individually for 180 min. Control reactions omitted the respective substrate. MS/MS data were obtained in negative ion mode, as described in the Examples.
Liquid chromatography-tandem mass spectrometry (LC-MS/MS) analyses for product confirmation were performed using an Agilent 1100 HPLC system (Santa Clara. Calif.) which was interfaced with an API 4000 triple quadrupole (MS/MS) mass spectrometer (Applied Biosystems. Foster City. Calif.). Instrument operation and data acquisition was controlled through the Analyst software package (Version 1.4.2, Applied Biosystems). The HPLC system consisted of an autosampler, a binary pump, and a column oven. […]
Trace amounts of glucuronidated product was detected for all the substrates, but in some cases, where kinetic information could not be obtained, the physiological significance remains to be determined. […] In particular, the presence of bis- and/or diglucuronidated products was not detected.

recombinant human UGT1A9 = target: T3, recombinant human UGT1A9 (Homo sapiens, UniProt O60656); assay: Glucuronidation by recombinant UGT1A9 (activity screen and steady-state kinetics); details: 750 μM substrate, UDP-GlcUA 4 mM, 90 min
T3 sequence (O60656 26-530): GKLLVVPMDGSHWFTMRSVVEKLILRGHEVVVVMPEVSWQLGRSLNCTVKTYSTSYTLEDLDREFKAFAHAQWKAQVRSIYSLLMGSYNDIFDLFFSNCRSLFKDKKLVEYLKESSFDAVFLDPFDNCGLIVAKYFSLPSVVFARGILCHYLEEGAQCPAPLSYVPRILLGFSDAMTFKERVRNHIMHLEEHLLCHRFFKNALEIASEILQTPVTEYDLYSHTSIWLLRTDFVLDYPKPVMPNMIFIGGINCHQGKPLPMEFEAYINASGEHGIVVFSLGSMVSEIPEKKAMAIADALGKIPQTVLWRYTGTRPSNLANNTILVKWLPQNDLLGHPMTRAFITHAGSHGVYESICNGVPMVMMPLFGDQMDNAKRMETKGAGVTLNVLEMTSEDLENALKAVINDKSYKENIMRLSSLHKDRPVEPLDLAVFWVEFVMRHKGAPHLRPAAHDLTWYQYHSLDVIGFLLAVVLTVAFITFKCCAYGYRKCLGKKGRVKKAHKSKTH

human liver microsomes = assay: Glucuronidation by human liver microsomes (activity screen); details: human liver microsomes (HLM); 750 μM substrate, UDP-GlcUA 4 mM, 90 min

| Compound | glucuronidation activity (initial screen), overall (human UGTs [1]) | glucuronidation activity (initial screen) (recombinant human UGT2B7) | glucuronidation activity (initial screen) [2] | glucuronidated product detected by LC-MS/MS (human UGTs [3]) | glucuronidation activity (initial screen) (recombinant human UGT1A9) | glucuronidation activity (initial screen) (human liver microsomes) |
| --- | --- | --- | --- | --- | --- | --- |
| C=C(C)[C@@H]1CCC(C)=C[C@H]1c1c(O)cc(CCCCC)cc1O [CBD, cannabidiol] | limited | minimal amount of a glucuronidated CBD product | minimal amount of a glucuronidated CBD product | confirming the glucuronide production | minimal amount of a glucuronidated CBD product | minimal amount of a glucuronidated CBD product |
| Δ^9-Tetrahydrocannabinol [(−)-Δ^9-THC] |  |  |  | confirming the glucuronide production |  |  |
